Here are results for three compounds from patent US12180207B2 (ARRAY BIOPHARMA INC., priority 2018, dated 2024).

The structures appear in SMILES notation. pIC50: −log10 of the molar value. Some results are limits rather than exact numbers.

Assay [1] has as its target T1, HEK-293 cells transfected with dox-inducible human wild type FGFR3 (Homo sapiens (Human), UniProt P22607). Description: FGFR3 pERK cell assay. It is filed as cell-based. The settings on record: HEK-293 dox-inducible FGFR3, 1 hour compound, 100 ng/ml FGF-acidic; maximum concentration 5 μM. In short, it runs like this:
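Doxycycline-induced cells preincubated 1 h at 37 °C with compound (1:3 dilutions, top 5 μM final), then stimulated 5 min with 100 ng/ml FGF-acidic. Lysate phospho-ERK1/2 measured by MSD sandwich assay; IC50 at 50 POC from 4-parameter fit, normalised to no-compound and control-compound wells.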

For assay [2], the target named is FGFR3 (SEQ ID NO: 5, amino acids 449-759) (Homo sapiens (Human), UniProt P22607). Briefly: LC/MS FGFR3 kobs assay (covalent protein modification). It is filed as binding. The note with it: 500 nM FGFR3, 3 μM compound. A digest of the protocol: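 Timed reactions were stopped with 0.4% formic acid, and covalent adduct formation was measured by LC/MS on a Q-TOF with deconvolution of protein masses. Modified signal was normalized to DMSO-control unmodified protein at each time point; percent unmodified protein was fit to exponential decay to give kobs.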
Sequence of FGFR3 (SEQ ID NO: 5, amino acids 449-759) (P22607 449-759): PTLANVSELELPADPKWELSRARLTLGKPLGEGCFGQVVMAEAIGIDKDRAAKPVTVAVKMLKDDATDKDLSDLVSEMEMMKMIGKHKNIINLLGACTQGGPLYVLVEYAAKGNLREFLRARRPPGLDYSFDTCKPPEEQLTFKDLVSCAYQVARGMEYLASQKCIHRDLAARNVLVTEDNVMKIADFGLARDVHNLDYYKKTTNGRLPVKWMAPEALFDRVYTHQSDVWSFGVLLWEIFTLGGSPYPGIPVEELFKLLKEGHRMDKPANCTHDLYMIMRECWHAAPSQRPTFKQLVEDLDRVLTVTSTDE

Assay [3] has as its target T1, HEK-293 cells transfected with dox-inducible human wild type FGFR3. Briefly: FGFR3 pFGFR cell assay (ELISA). The note with it: HEK-293 dox-inducible FGFR3, 1 hour compound, 100 ng/ml FGF-acidic. The format is cell-based. In short, it runs like this: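 Doxycycline-induced (1 μg/ml) HEK-293 cells expressing wild-type human FGFR3, treated 1 h with compound (1:3 series, top final 5 μM), then stimulated 5 min with 100 ng/ml FGF-acidic. Phospho-FGFR3 measured by ELISA (total FGFR3 capture, phosphotyrosine detection, OD 450 nm); IC50 from 4-parameter fit of POC values.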
For orientation: ELISA stands for enzyme-linked immunosorbent assay.

In a further assay the target is dephosphorylated FGFR2 (Homo sapiens (Human), UniProt P21802). Briefly: FGFR enzyme binding assay (HTRF tracer displacement), FGFR2. The settings on record: 5 nM dephosphorylated FGFR2, average of multiple determinations if made. In short, it runs like this:
(§1)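 Compounds were tested for displacement of a tracer from human FGFR kinase in a time-resolved FRET binding format. After 60 minutes at 22° C, signal was read at two wavelengths and converted to percent of control, normalised between untreated wells and 1 μM reference inhibitor.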
A general note: Time-resolved FRET reads energy transfer from a long-lived donor to a nearby acceptor.

The target of assay [4] is HEK-293 cells transfected with dox-inducible human wild type FGFR1 (Homo sapiens (Human), UniProt P11362). Briefly: FGFR1 pERK cell assay. It is filed as cell-based. The note with it: HEK-293 dox-inducible FGFR1, 1 hour compound, 100 ng/ml FGF-acidic; maximum concentration 5 μM. A digest of the protocol:
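In HEK-293 cells with dox-induced human wild-type FGFR1, compounds (1:3 dilutions, top 5 μM final) were applied 1 h at 37°C before 5 min stimulation with 100 ng/ml FGF-acidic. Phospho-ERK1/2 measured by MSD sandwich immunoassay; IC50 from 4-parameter fit of POC versus vehicle and control compound.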

Assay [5] has as its target phosphorylated FGFR3 (SEQ ID NO: 5, amino acids 449 to 759) (Homo sapiens (Human), UniProt P22607). Description: FGFR enzyme binding assay (HTRF tracer displacement), FGFR3. The note with it: 5 nM phosphorylated FGFR3, average of multiple determinations if made. A digest of the protocol: as §1

Sequence of phosphorylated FGFR3 (SEQ ID NO: 5, amino acids 449 to 759) (P22607 449-759): as above
T1 sequence (P22607 23-806): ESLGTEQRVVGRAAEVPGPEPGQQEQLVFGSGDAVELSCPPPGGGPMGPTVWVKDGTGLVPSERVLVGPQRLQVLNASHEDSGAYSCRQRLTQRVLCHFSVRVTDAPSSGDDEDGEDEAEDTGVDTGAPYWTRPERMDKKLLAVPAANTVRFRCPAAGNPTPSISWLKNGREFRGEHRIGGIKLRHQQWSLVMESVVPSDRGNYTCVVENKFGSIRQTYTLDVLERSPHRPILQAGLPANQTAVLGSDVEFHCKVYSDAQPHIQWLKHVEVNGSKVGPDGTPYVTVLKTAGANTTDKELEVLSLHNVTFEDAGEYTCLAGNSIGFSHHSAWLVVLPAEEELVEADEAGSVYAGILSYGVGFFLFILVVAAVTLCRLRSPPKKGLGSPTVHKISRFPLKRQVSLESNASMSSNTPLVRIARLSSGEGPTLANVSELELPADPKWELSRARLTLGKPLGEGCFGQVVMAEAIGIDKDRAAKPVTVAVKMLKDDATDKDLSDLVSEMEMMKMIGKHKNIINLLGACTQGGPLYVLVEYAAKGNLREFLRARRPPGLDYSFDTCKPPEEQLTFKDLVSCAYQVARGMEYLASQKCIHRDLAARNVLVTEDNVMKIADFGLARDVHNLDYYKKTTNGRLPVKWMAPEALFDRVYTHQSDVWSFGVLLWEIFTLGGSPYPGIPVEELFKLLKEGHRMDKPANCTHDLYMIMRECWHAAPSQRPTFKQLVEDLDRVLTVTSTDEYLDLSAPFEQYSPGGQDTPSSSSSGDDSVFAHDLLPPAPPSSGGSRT
Sequence of HEK-293 cells transfected with dox-inducible human wild type FGFR1 (P11362 22-822): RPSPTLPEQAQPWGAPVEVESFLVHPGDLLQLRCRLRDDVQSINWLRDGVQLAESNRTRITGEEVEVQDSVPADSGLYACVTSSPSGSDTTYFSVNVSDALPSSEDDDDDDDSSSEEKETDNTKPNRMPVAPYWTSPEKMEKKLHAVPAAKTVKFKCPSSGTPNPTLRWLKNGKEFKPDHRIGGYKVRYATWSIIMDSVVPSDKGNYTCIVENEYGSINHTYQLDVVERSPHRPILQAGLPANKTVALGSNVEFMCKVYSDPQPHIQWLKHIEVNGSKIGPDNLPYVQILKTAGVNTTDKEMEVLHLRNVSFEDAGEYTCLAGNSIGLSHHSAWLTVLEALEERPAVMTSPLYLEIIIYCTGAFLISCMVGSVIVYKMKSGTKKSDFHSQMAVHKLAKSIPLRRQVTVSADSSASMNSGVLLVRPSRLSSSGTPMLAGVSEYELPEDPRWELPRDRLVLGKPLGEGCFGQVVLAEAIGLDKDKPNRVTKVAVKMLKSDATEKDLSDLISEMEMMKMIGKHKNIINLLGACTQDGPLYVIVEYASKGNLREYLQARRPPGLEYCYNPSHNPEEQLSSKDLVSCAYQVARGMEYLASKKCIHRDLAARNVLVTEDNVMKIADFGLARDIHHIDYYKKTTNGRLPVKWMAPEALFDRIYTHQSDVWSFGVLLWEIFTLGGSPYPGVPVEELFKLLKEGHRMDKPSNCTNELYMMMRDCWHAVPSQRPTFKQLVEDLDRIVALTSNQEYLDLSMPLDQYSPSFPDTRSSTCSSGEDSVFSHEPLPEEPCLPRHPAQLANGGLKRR
Sequence of dephosphorylated FGFR2 (P21802 22-821): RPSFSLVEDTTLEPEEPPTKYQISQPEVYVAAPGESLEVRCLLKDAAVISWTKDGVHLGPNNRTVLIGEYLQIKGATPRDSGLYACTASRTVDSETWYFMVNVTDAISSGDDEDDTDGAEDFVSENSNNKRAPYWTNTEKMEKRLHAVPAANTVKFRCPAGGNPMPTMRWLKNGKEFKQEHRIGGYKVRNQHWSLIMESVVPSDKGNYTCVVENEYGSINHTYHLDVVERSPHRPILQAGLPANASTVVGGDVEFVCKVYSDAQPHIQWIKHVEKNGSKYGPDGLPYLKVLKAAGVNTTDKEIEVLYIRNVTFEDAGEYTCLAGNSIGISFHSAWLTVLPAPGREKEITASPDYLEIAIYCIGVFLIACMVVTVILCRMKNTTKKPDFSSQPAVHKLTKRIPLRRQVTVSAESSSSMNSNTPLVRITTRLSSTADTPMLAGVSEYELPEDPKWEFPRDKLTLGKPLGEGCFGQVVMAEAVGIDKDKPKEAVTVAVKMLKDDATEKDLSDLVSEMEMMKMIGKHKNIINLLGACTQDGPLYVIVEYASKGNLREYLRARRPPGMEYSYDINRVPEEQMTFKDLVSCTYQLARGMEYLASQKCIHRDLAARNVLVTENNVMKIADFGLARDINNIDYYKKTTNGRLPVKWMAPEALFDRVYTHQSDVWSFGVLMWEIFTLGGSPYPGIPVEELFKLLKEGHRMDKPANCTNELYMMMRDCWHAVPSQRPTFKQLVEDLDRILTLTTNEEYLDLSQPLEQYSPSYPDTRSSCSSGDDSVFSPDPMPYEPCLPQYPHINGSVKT

As to `C=CC(=O)N1CC[C@@H](C(=O)N2CCC(n3ncc(-c4cc(OC)c5c(C#N)cnn5c4)c3C)CC2)C1` [Example 83, (R)-6-(1-(1-(1-acryloylpyrrolidine-3-carbonyl)piperidin-4-yl)-5-methyl-1H-pyrazol-4-yl)-4-methoxypyrazolo[1,5-a]pyridine-3-carbonitrile], the pIC50 (usually −log10 of the IC50, conventionally taken in molar units) is 6.26 in assay [1]; 6.26 in assay [3]; 7.77 on dephosphorylated FGFR2; at most 5.30 in assay [4]; 7.85 in assay [5]. Besides, in assay [2], the “FGFR3 Enz kobs” value stood at 0.00547 min⁻¹.

Regarding `C=CC(=O)N1CC(C(=O)N2CCC(n3ncc(-c4cc(OC)c5c(C#N)cnn5c4)c3C)CC2)C1` [Example 84, 6-(1-(1-(1-acryloylazetidine-3-carbonyl)piperidin-4-yl)-5-methyl-1H-pyrazol-4-yl)-4-methoxypyrazolo[1,5-a]pyridine-3-carbonitrile], the pIC50 in assay [1] is 6.97; in assay [3], 7.11; at dephosphorylated FGFR2, 7.68; in assay [4], 5.60; in assay [5], 7.66. Besides, the “FGFR3 Enz kobs” value in assay [2] was found to be 0.02394 min⁻¹.

With `C=CC(=O)N1CC(F)(C(=O)N2CCC(n3ncc(-c4cc(OC)c5c(C#N)cnn5c4)c3C)CC2)C1` [Example 85, 6-(1-(1-(1-acryloyl-3-fluoroazetidine-3-carbonyl)piperidin-4-yl)-5-methyl-1H-pyrazol-4-yl)-4-methoxypyrazolo[1,5-a]pyridine-3-carbonitrile], the pIC50 in assay [1] was 7.72; in assay [3], 7.80; on dephosphorylated FGFR2 it was 7.44; in assay [4], 6.34; in assay [5], 8.52. In assay [2], the “FGFR3 Enz kobs” value stood at 0.1061 min⁻¹.
